Source: US20240116962A1, “PYRIDINE-2-AMINE DERIVATIVE AND PHARMACEUTICAL COMPOSITION AND USE THEREOF” (TSINGHUA UNIVERSITY, priority 2020, published 2024)
Like-named read-outs stand apart in the source and are kept apart here.

Legend:
[1] = molecular target: T1, hTLR8 (Homo sapiens, UniProt Q9NR97); assay: EC50 assay for small molecule agonists, HEK-Blue hTLR8 cells, SEAP readout; format: cell-based
T1 construct: host or cells: HEK-Blue hTLR8 (HEK293-derived reporter cells with SEAP read-out)
T1 sequence (Q9NR97 27-1041): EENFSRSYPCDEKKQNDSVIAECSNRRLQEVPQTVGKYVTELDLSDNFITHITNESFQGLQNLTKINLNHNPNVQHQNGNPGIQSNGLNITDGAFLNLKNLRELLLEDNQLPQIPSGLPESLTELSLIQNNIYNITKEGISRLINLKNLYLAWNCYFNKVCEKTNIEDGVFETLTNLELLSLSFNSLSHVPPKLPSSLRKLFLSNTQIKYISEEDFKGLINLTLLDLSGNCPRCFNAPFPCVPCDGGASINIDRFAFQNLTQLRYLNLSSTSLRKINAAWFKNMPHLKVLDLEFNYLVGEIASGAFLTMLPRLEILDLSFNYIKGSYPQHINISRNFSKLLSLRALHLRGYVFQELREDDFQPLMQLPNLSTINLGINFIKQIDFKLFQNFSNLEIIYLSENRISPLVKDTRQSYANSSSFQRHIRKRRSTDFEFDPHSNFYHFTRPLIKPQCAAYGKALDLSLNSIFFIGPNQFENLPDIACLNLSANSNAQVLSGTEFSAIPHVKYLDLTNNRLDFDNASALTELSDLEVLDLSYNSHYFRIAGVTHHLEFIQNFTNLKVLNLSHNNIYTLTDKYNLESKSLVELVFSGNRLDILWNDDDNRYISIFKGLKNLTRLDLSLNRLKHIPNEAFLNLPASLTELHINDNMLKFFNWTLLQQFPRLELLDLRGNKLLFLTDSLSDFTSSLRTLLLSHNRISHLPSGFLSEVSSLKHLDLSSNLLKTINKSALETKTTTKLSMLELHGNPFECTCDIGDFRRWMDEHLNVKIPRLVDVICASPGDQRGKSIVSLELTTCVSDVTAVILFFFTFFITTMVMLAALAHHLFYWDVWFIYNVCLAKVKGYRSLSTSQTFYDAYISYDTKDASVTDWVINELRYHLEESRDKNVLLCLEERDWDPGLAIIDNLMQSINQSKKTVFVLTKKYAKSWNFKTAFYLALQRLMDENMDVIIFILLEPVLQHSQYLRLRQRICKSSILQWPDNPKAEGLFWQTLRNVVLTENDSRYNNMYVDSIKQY
Experimental: (§1) Reagents used for cell culture and detection for HEK-Blue™ hTLR7, HEK-Blue™ hTLR8 and control HEK-Blue Nu112k were as follows: DMEM (4.5 g/L glucose), bovine serum FBS, streptomycin ([…]), penicillin (50 U/mL), Blasticidin (10 mg/mL), Zeocin™ (10 mg/mL), Normocin (50 mg/mL), and HEK-Blue™ Detection. Basal medium was as follows: DMEM +10% FBS+streptomycin+penicillin+Normocin ([…]); selective medium for resistance genes was as follows: DMEM+10% FBS+streptomycin+penicillin+Normocin (1001 μg/mL)+Blasticidin (1001 μg/mL)+Zeocin™ (1001 μg/mL).
(§2) Cell preparation: HEK-Blue™ hTLR7 and HEK-Blue™ hTLR8 cell lines were purchased from Invivogen. The cells frozen in liquid nitrogen were taken, quickly placed in a water bath at 37° C., shaken occasionally, and completely melted within 1 min. The cells were transferred to 15 mL of pre-heated basal medium and resuspended; centrifuged at 1,000 r/min for 5 min, supernatant discarded; resuspended with 1 mL of basal medium, transferred to a T25 culture flask, supplemented to 5 mL with the medium, and incubated in an incubator at 37° C.; after stable passage twice, and subjected to selective antibiotic screening: HEK-Blue™ hTLR7 or HEK-Blue™ hTLR8: 100 μg/mL Zeocin+Blasticidin (30 μg/mL), HEK-Blue Nu112-k: 100 μg/mL Zeocin. The fluid was changed 3 times a week. When the number of cells reached 70%-80%, PBS was added, and the cells were exfoliated by gently pipetting.
(§3) Activity assay steps: (1) adding a test sample to a 96-well plate at 20 μL/well (triplicate wells were set); (2) adding 20 μL of positive control (e.g., R848), and adding 20 μL of negative control (e.g., ddH2O); (3) removing a T75 culture flask from the incubator, discarding the medium, adding 5-10 mL of pre-heated PBS, and gently pipetting the cells; adding 2-5 mL of PBS to the culture flask, incubating the culture flask in the incubator for 1-2 min, and then gently pipetting the cells to make them exfoliated; (4) mixing the mixture well, and counting the cells, without centrifugation; resuspending the cells with HEK-Blue™ assay solution and adjusting the cell number, taking care not to incubate for a long time to avoid too deep background or false positive. HEK-Blue hTLR cell number was about 2.2×10^5/mL, 180 μL/well (about 40000 cells), and HEK-Blue Nu112-k cell number was about 2.8×10^5/mL, 180 μL/well (about 50000 cells). (5) incubating the cells in the incubator at 37° C. for 6-16 h, and detecting at 620-655 nm for SEAP readings.
(§4) Effect %=(mean OD of the administration group−mean OD of the H2O group at each concentration)/(mean ODmax of the positive drug group−mean OD of the H2O group)×100. EC50 was calculated by fitting Lg [concentration]-effect curves using GraphPad Prism5 software.
(§5) Experimental results: the concentration for 50% of maximal effect (EC50) refers to a corresponding concentration of small molecules that can cause 50% of the maximal agonistic effect. […] EC50 represents a potency for agonizing the TLR8 receptor, with smaller values indicating better efficacy. […] In the following table, the unit of the agonist activity is nanomole, unless otherwise specified.

[2] = molecular target: T2, hTLR7 (Homo sapiens, UniProt Q9NYK1); assay: EC50 assay for small molecule agonists, HEK-Blue hTLR7 cells, SEAP readout; format: cell-based; conditions: agonist activity, nd = EC50 larger than 25 μM
T2 construct: host or cells: HEK-Blue hTLR7 (HEK293-derived reporter cells with SEAP read-out)
T2 sequence (Q9NYK1 27-1049): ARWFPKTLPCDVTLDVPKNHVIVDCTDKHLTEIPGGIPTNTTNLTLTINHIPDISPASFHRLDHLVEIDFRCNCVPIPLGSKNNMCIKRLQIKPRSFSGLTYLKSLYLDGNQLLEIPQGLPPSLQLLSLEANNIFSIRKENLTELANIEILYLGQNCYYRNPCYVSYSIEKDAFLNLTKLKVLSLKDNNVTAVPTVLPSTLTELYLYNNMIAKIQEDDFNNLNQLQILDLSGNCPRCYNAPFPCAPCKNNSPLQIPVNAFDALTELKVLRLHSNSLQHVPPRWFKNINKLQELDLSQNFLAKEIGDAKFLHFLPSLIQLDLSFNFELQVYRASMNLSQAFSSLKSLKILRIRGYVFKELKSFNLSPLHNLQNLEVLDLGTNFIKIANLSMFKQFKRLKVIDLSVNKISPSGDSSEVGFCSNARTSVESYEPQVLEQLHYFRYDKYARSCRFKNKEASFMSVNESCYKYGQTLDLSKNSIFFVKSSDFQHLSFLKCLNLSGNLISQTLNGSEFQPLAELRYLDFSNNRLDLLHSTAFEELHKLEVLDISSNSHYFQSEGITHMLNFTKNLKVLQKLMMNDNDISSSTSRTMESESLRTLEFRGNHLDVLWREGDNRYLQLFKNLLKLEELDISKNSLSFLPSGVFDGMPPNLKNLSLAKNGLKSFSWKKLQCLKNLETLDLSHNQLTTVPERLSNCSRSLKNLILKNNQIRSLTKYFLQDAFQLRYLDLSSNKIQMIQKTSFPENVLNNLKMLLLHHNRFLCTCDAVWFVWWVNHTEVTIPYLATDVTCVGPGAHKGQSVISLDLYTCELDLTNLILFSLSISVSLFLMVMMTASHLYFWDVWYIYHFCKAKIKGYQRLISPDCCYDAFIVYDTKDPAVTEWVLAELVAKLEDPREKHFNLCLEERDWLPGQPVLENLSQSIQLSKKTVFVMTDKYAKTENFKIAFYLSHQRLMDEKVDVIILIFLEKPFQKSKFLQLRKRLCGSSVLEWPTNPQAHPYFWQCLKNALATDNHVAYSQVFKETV
Experimental: as §1, §2, §3, §4, §5

[3] = agonist activity, read-out: hTLR8(EC50)

Row | EC50 [1, 3] [nM] | EC50 [2] [µM] | EC50 ([1]; read-out: concentration for 50% of maximal effect (EC50) hTLR8) [nM] | SMILES
1 | 398 | > 25 | – | CCCCCc1cc2nc(Cc3ccc(CN(C)C)cc3)ccc2nc1N [Compound N1]
2 | 1580 | > 25 | – | CCCCCc1cc2nc(Cc3ccc(CN4CCOCC4)cc3)ccc2nc1N [Compound N3]
3 | 58 | > 25 | – | CCCCCc1cc(Cc2ccc(CN(C)C)cc2)c(C)nc1N [Compound N4]
4 | 63 | > 25 | – | CCCCCc1cc(Cc2ccc(CN3CCCC3)cc2)c(C)nc1N [Compound N7]
5 | 151 | > 25 | – | CCCCCc1cc(Cc2ccc(CN3CCN(C)CC3)cc2)c(C)nc1N [Compound N11]
6 | > 4000 | > 25 | – | CCCCCc1cc(Cc2ccc(CN(C)CC(=O)O)cc2)c(C)nc1N [Compound N14]
7 | 628 | > 25 | – | CCCCCc1cc(Cc2ccc(CN(C)CCC(=O)OC)cc2)c(C)nc1N [Compound N15]
8 | 121 | > 25 | – | CCCCCc1cc(Cc2ccc(CN3CCC3)cc2)c(C)nc1N [Compound N17]

Further lines, the compound ahead of its results:

Row | SMILES | EC50 [1, 3] [nM] | EC50 [2] [µM] | EC50 ([1]; read-out: concentration for 50% of maximal effect (EC50) hTLR8) [nM]
9 | CCCCCc1cc2nc(Cc3ccc(CN4CCCC4)cc3)ccc2nc1N [Compound N2] | 480 | > 25 | –
10 | CCCCCc1cc(Cc2ccc(CN)cc2)c(C)nc1N [Compound N5] | 122 | > 25 | –
11 | CCCCCc1cc(Cc2ccc(CNC)cc2)c(C)nc1N [Compound N6] | 84 | > 25 | –
12 | CCCCCc1cc(Cc2ccc(CN3CCOCC3)cc2)c(C)nc1N [Compound N8] | 428 | > 25 | –
13 | CCCCCc1cc(Cc2ccc(CN3CCCCC3)cc2)c(C)nc1N [Compound N9] | 54 | > 25 | 40
14 | CCCCCc1cc(Cc2ccc(CN3CCNCC3)cc2)c(C)nc1N [Compound N10] | 134 | > 25 | –
15 | CCCCCc1cc(Cc2ccc(CN3CCCCCC3)cc2)c(C)nc1N [Compound N12] | 109 | > 25 | –
16 | CCCCCc1cc(Cc2ccc(CN(C)CC(=O)OC)cc2)c(C)nc1N [Compound N13] | 3000 | > 25 | –
17 | CCCCCc1cc(Cc2ccc(CN(C)CCC(=O)O)cc2)c(C)nc1N [Compound N16] | > 4000 | > 25 | –
